Assay results taken from patent publication US5863952A, “Enantiomers of 1-(3,4-dichlorobenzyl)-2-methylaminoindane” (SmithKline Beecham plc, priority 1995, dated 1999).

Columns and labels:
[1] = test system: voltage gated Ca2+ channel currents (remaining, predominantly N type, calcium current) in superior cervical ganglion neurons; experiment: Ca2+ current measurement, whole cell recording in cultured superior cervical ganglion neurons; assay type: cell-based; conditions: 5 μM drug coapplied with 10 μM Nimodipine for three minutes; 10 mM Ba2+ as charge carrier; holding potential -80 mV, test potential 0 or +10 mV; Hydrochloride
Method: Lett., 77, 55-60 (1987). Cells were plated onto laminin coated plastic tissue culture dishes and incubated at 37° C. until just prior to recording. Electrophysiological recordings were performed from 2 to 9 days after dissociation. The pipette (internal solution) contained in mM: CsCl, 130; HEPES, 10; EGTA, 10; MgCl2, 4; ATP, 2; buffered to pH 7.2 with CsOH. Cells were bathed in a normal Tyrodes solution before establishment of whole cell recording when the bathing solution was changed to one allowing isolation of Ca^2+ currents. The external solution for recording Ca^2+ channel currents contained in mM: BaCl2, 10; TEA-Cl, 130; glucose, 10; HEPES, 10; MgCl2, 1; buffered to pH 7.3 with TEA-OH. […] Whole cell currents were recorded using List EPC-7 amplifiers and stored, digitised for later analysis using PC based software similar to that described previously (Benham & Tsien, Journal of Physiology (1988), 404, 767-784). Peak voltage gated Ca^2+ channel currents of up to 10 nA were recorded using 10 mM Ba^2+ as charge carrier. […] The rundown rate was measured in control conditions and extrapolated through the time of drug application to derive a rundown corrected control value. Once a constant calcium current had been recorded for 4 successive pulses (1 minute) 10 μM Nimodipine, a dihydropyridine, was applied to the cell to block L type calcium current. […]

[2] = test system: histological damage in the CA1 region of the hippocampus after carotid artery occlusion; experiment: Gerbil BCAO model; assay type: in vivo, Mongolian gerbils; conditions: 6 min carotid occlusion, 15 mg.kg-1 i.p. 30 minutes post-ischaemia then 5 mg.kg-1 b.i.d. for 3 days, histology on 5th day
Method: Male Mongolian gerbils weighing between 60-80 g were anaesthetised with halothane, placed on a heated mat and the carotid arteries occluded for 6 min. After reperfusion, the animals were sutured and placed in an incubator for 2 hours to maintain body temperature during the acute recovery phase. The animals were then caged separately and on the 5th day after the day of surgery they were euthanased and the brains removed for histological analysis. The dosing protocol in these experiments was 15 mg.kg^-1 30 minutes post-ischaemia then 5 mg.kg^-1 b.i.d. for 3 days. Injections were given via the i.p. route, and the vehicle was distilled water.

[3] = test system: histological damage in the cerebral cortex after mid-cerebral artery occlusion; experiment: Mouse MCAO model; assay type: in vivo, CD1 mice; conditions: 10 mg.kg-1 i.p. 30 minutes post-ischaemia then 10 mg.kg-1 b.i.d. for 3 days, histology on 4th day
Method: Male CD1 mice weighing 25-29 g were anaesthetised with tribromoethanol, placed on a heat-pad and maintained at 37° C. The mid-cerebral artery was cauterised and divided via the intra-cranial route. On completion of surgery the mice were placed in an incubator for 2 hours to maintain body temperature during the acute recovery phase. On the 4th day the mice were euthanased and the brains removed for histological analysis. The dosing protocol in these experiments was 10 mg.kg^-1 30 minutes post-ischaemia then 10 mg.kg^-1 b.i.d. for 3 days. Injections were given via the i.p. route, and the vehicle was distilled water.

CN[C@H]1Cc2ccccc2[C@H]1Cc1ccc(Cl)c(Cl)c1.Cl (single isomer, unassigned) [Example 2, (-)cis-1-(3,4-Dichlorobenzyl)-2-methylaminoindane Hydrochloride]
inhibition of plateau Ca2+ current [1]: 99% | attenuation of histological damage in the CA1 region of the hippocampus compared with ischaemic vehicle-treated animals [2]: significant attenuation of the histological damage | attenuation of histological damage in the cerebral cortex compared with ischaemic vehicle-treated animals [3]: significant attenuation of the histological damage

CN[C@H]1Cc2ccccc2[C@H]1Cc1ccc(Cl)c(Cl)c1.Cl (single isomer, unassigned) [Example 1, (+)cis-1-(3,4-Dichlorobenzyl)-2-methylaminoindane Hydrochloride]
inhibition of plateau Ca2+ current [1]: 95% | attenuation of histological damage in the CA1 region of the hippocampus compared with ischaemic vehicle-treated animals [2]: significant attenuation of the histological damage | attenuation of histological damage in the cerebral cortex compared with ischaemic vehicle-treated animals [3]: significant attenuation of the histological damage
